One test deals with T1, hTRPV3 (Homo sapiens, UniProt Q8NET8).
T1 construct: Eurofins-CEREP or Eurofins-PANLABS (contract assay)
T1 sequence (Q8NET8 1-790): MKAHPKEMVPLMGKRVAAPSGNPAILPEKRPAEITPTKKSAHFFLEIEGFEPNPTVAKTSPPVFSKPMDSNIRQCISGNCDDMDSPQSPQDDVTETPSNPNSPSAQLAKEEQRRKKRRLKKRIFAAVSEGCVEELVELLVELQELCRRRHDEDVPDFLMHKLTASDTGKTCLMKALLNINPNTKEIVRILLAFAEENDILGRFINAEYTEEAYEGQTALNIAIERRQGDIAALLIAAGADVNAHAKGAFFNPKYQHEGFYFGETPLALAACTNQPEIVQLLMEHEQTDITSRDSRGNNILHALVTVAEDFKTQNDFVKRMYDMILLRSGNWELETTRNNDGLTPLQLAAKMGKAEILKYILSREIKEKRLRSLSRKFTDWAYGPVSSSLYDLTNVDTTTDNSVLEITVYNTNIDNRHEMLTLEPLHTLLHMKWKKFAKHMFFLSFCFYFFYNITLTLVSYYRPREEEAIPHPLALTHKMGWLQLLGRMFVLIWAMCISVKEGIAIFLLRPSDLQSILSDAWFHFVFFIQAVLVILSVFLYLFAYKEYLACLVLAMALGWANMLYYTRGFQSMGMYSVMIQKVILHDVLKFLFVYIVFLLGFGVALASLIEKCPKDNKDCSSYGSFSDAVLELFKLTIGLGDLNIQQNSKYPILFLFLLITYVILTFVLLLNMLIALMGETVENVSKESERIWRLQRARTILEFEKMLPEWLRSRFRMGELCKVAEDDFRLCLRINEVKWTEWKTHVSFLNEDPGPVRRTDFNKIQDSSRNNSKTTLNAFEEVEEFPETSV
Briefly: TRPV3 channel Ca2+ microfluorimetry (2-APB 30 μM). It is filed as cell-based. The following applies: agonist 2-APB 30 μM. The source says:
The effects of compound 34 have been evaluated on different ion channels and receptors implicated in pain-related processes to assess the selectivity for TRPM8 channels. First, some TRP channels that play a role in temperature integration and nociception were selected, including hTRPV1, hTRPV3, hTRPA1 and TRPM3. Additionally, the evaluation encompassed the hASIC3 channel with widespread distribution within the peripheral nervous system and contributions to the excitability of primary sensory neurons. In each instance, the compound was subjected to evaluation at a consistent concentration of 10 µM.
(§1) Calcium fluorometry, Patch-Clamp assays and in vivo experiments were performed using the methodology previously described for TRPM8 [35] or TRPM3 [61]. In the Patch -Clamp experiments, the intracellular pipette solution contained (in mM) 140 KCl, 5 EGTA, and 10 mM HEPES, adjusted to pH 7.2 with KOH, and the extracellular solution contained (in mM) 140 NaCl, 2 CaCl2, 1 MgCl2, 10 D-glucose and 10 HEPES, adjusted to pH 7.4 with NaOH. Selectivity against TRPV1, TRPV3, TRPA1 and ASIC3 was subcontracted to Eurofins-CEREP or Eurofins-PANLABS (see ref. [35] for more details).

The next test deals with hCGRPR (Homo sapiens, UniProt O60894+Q16602). As to the kind of experiment: Radioligand binding at CGRP receptor. The following applies: radioligand [125]hGCRPα. The source says:
(§2) Furthermore, the investigation extended to measuring the binding affinity of compound 34 to calcitonin gene-related peptide hCGRPR, cannabinoid hCB2 and muscarinic hM3 receptors, which are all relevant to different pain conditions.

Test [1] has as its system oxaliplatin-induced cold hypersensitivity. Briefly: Oxaliplatin-induced cold allodynia in mice (acetone drop test). The format is in vivo.
Excerpt: It is established that treatments with the chemotherapeutic drug oxaliplatin (OXA) induce painful peripheral neuropathy, known as CIPN, which becomes more pronounced in cold conditions. The TRPM8 channel has been implicated in mouse models of CIPN pain induced by OXA [19, 51]. In fact, the OXA-induced peripheral neuropathy mouse model is being used for the pharmacological characterization of TRPM8 antagonists. For this peripheral neuropathy assay, mice were subcutaneously (s.c.) injected with OXA at a dose of 6 mg/kg dose on days 1, 3 and 5 to male mice to induce increased sensitivity to cold, which can be monitored through the acetone drop test.
Consequently, compounds 34 and 35 have been tested for their ability to alleviate OXA-induced cold hypersensitivity after intraplantar administration (i.pl., 3, 1 and 0.1 μg). […] This effect was observed 15 min post-administration and sustained up to 60 min.
as §1
Figure 4 Effects of compounds 34 (A) and 35 (B) on the oxaliplatin (OXP)-induced cold hypersensitivity (drop acetone test). Peripheral neuropathy was induced in male mice by injecting OXA (6 mg/kg, s.c.) on days 1, 3 and 5. Control animals were treated with vehicle. Compounds 34 (A) and 35 (B) (3 µg/i.pl., 1 µg/i.pl. and 0.1 µg/i.pl.) were administered to the OXP-treated animals, and the time-course of cold hypersensitivity was measured. Data are given ± SEM (n = 5). Statistical analysis, comparing with oxaliplatin-treated mice, was performed by two-way ANOVA followed by post hoc Bonferroni test by multiple comparisons: * […], ** p < 0.01, **** p < 0.0001.

Test [2] addresses T2, rat TRPM8 channel (rTRPM8) (Rattus norvegicus, UniProt Q8R455).
T2 construct: expressed in transfected cells
Briefly: Ca2+ microfluorimetry, menthol-induced Ca2+ entry in HEK293 cells overexpressing rTRPM8. It is filed as cell-based. The following applies: Table 3; rTRPM8, HEK293, activation by 100 µM menthol. As to the method: The diastereomeric 1,4,4-trisubstitutes β-lactams were evaluated as modulators of the TRPM8 channel by calcium microfluorimetry assays. These assays use a Human Embryonic Kidney 293 (HEK293) cell line that stably overexpressed rat TRPM8 channel (rTRPM8). […] Three separated experiments in triplicate were used.
The initial biological evaluation of this series of 1,3,4,4-tetrasubstituted β-lactams was performed by calcium microfluorimetry assays using the indicated HEK293 cell line overexpressing rTRPM8 channels.
as §1

For a further test, the target named is hCB2 (Homo sapiens, UniProt P34972). Briefly: Radioligand binding at cannabinoid CB2 receptor. The following applies: radioligand [3H]WIN 55212-2.
Excerpt: as §2

Test [3] deals with dorsal root ganglia (DRG) sensory neurons. Briefly: Resting membrane potential of DRG sensory neurons (current clamp Patch-Clamp). It is filed as cell-based. The following applies: 10 µM. As to the method:
We also investigated the effect of β-lactams derivatives on the resting membrane potential (RMP) of dorsal root ganglia (DRG) sensory neurons.
(A) Representative recordings of resting membrane potential measured under current clamp configuration. The traces show the action potentials (APs) firings from DRG neurons elicited by 100 μM menthol (left trace) or in the presence of vehicle (0.5% DMSO) or the β-lactams derivatives ([…]). (B) Changes in the Vm in the absence and in the presence of 10 μM of the β-lactams derivatives. Data were analyzed by one-way ANOVA followed by Bonferroni post hoc test for multiple comparisons (ns = no significance, **** p < = 0.0001) and given as mean ± SEM; n ≥ 40 cells from 4 cultures.
On the technique in general: The patch-clamp technique gives a direct electrical read-out from membranes.

hCB2, sequence (P34972 whole entry): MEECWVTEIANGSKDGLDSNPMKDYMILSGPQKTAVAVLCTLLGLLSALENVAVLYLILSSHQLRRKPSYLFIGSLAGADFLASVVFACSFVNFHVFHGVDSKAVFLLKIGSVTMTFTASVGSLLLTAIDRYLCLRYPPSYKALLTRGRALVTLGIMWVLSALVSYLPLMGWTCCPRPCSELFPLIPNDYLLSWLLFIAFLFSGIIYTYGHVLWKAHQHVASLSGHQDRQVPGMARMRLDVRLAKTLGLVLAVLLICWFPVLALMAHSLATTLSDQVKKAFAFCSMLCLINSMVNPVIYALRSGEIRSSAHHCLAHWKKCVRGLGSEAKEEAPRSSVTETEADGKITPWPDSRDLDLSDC
hCGRPR, sequence (Q16602 23-461): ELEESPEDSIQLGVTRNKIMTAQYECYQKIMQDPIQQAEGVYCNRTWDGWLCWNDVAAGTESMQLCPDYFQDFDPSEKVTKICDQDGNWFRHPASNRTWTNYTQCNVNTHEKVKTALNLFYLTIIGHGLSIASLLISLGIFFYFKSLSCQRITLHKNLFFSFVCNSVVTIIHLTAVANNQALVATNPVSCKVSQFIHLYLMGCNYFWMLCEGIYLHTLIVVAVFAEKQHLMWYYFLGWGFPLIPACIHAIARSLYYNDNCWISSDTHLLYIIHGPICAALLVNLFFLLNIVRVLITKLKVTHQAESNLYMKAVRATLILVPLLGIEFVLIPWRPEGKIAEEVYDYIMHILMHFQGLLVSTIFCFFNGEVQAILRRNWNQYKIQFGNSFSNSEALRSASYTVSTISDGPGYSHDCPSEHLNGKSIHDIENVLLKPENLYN
hCGRPR, sequence (O60894 27-148): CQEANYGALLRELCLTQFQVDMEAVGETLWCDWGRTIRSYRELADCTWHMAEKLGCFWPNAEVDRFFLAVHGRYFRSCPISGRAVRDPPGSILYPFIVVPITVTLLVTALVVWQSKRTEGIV
T2 sequence (Q8R455 whole entry): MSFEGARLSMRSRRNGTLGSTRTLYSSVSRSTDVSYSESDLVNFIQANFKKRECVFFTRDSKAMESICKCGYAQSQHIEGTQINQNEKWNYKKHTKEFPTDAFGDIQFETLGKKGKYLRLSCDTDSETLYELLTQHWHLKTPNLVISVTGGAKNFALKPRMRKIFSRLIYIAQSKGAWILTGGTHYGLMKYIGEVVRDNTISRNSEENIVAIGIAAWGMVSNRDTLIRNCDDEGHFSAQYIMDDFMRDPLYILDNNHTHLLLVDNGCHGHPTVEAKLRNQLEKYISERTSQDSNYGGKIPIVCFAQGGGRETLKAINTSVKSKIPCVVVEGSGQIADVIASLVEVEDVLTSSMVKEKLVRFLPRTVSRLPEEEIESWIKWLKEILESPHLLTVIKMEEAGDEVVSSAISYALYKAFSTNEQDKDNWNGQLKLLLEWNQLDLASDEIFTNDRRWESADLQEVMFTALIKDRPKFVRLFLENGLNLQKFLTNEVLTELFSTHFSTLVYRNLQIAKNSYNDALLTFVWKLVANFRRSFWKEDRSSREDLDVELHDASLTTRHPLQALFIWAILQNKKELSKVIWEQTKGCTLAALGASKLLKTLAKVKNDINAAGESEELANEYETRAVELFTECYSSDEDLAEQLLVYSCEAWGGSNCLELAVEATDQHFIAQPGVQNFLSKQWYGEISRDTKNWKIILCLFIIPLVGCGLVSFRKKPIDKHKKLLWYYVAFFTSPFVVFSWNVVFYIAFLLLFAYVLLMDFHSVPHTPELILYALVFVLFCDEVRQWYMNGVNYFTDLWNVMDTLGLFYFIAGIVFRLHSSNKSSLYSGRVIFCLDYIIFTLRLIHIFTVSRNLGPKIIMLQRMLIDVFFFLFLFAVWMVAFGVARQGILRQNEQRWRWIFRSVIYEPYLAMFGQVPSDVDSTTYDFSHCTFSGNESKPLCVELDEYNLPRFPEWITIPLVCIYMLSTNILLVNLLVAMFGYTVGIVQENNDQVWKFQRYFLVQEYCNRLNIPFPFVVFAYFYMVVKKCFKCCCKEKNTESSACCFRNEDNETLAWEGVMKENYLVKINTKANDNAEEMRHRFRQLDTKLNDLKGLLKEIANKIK

For orientation: inhibition means the drop in the measured response relative to a control, in per cent. For orientation: IC50 means the point on the concentration scale where inhibition reaches its midpoint. Low values mean inhibition by little substance, high ones a need for much substance. As for `CC(C)CNC(=O)[C@]1(Cc2ccccc2)[C@H](C)C(=O)N1C[C@H](Cc1ccccc1)N(Cc1ccccc1)Cc1ccccc1` [Compound 34, 4S-Benzyl-4-[N-(iso-butyl)-carbamoyl]-3S-methyl-1-[(2′S-dibenzylamino-3′-phenyl)prop-1′-yl]-2-oxoazetidine], the inhibition at 10 µM at hTRPV3 was 17.3 ± 5.7%; at hCGRPR, -11.9 ± 5.2%; on hCB2, 7 ± 2.1%. Besides, the “time the antiallodynic effect is sustained” value in test [1] (i.pl., observed from 15 min post-administration) is “up to 60 min”. In test [1] (male mice, OXA 6 mg/kg s.c. days 1, 3, 5, i.pl. 3, 1 and 0.1 μg), the “effect on cold-induced paw licking” value is “dose-dependent and significant reduction”. This molecule also had an IC50 in test [2] of 300 nM. Moreover, the “effect on resting membrane potential (RMP)” value in test [3] was “did not alter the RMP”.

Source of the values: article PMC10573892, “β-Lactam TRPM8 Antagonists Derived from Phe-Phenylalaninol Conjugates: Structure–Activity Relationships and Antiallodynic Activity” (International Journal of Molecular Sciences, 2023).
